Results on 40 molecules are retold here after ChEMBL document CHEMBL3507680, “University of Dundee, Gates Library screen for HepG2 cell viability”.

This data set in a line: Human HepG2 cell viability assay in 384 well format. Further details: dose 125 nL, time 70.5 hour; cytotoxicity at 70.5 h: concentration not given beside the values. As to conditions: HepG2 cells, read-out: Inhibition. In kind it is toxicity, cell-based.

Consider `COc1cccc(N2CCN(C(=O)c3noc4c3CCCCC4)CC2)c1`, for which the cytotoxicity at 70.5 h was -4.22%. Take `CN1C(=N)NC(=O)/C1=C/c1ccc(-c2ccc(Br)cc2)o1`: the cytotoxicity at 70.5 h came out at 1.84%. Regarding `O=C(CCC(=O)Nc1nnc(C(F)(F)F)s1)NCC1CCCO1` (stereo not given), the cytotoxicity at 70.5 h was -0.323%.

Consider `Cc1cc(=O)n2nc(-c3cccs3)nc2n1CC(=O)NC(C)C`, for which the cytotoxicity at 70.5 h is -24%. On to `COCCNC(=O)c1ccc2c(=O)n3c(nc2c1)CCCC3`, for which the cytotoxicity at 70.5 h is -2.97%. As to `CCc1nc(-c2ccc(NC(=O)N3CCC4(CC3)OCCO4)cc2)no1`, the cytotoxicity at 70.5 h amounted to 3.68%. As for `COc1ccccc1CNc1c(O)c(=O)c1=O`, the cytotoxicity at 70.5 h was -7.01%. Then `COc1ccc(OC)c(CNc2c(O)c(=O)c2=O)c1`, with -21.2%; and `CCOC(=O)CNC(=O)NCc1cccn1Cc1ccc(F)cc1`, with 22.9%. With `CCOC(=O)CNC(=O)NCc1cccn1Cc1ccccc1C`, the cytotoxicity at 70.5 h was -17.6%. Consider `CCOC(=O)N1CCN(C(=O)CCn2cccc2)CC1`, for which the cytotoxicity at 70.5 h came to 7.81%. Turning to `CC(=O)N1N=C(COc2ccc3c(c2)OCO3)OC1c1ccc(C)cc1` (stereo not given), the cytotoxicity at 70.5 h is -14.5%. For the molecule `COCCn1c(-c2cccc(OC)c2)cnc1NC(=O)NC(C)C`, the cytotoxicity at 70.5 h is -2.89%.

Consider `CCOc1ccc(C(=O)Nc2c(C)nc3ccccn3c2=O)cc1`, for which the cytotoxicity at 70.5 h stood at 19.8%. `CCOc1ccc(C(=O)Nc2c(C)nc3cccc(C)n3c2=O)cc1`: the cytotoxicity at 70.5 h is -19.3%. Then `COc1cnc(CSc2nnc(C)s2)cc1OCC(=O)NC(C)(C)C`, with -7.68%; and `Cc1ccc2oc(SCC(N)=O)nc2n1`, with -21.9%; and `Cc1n[nH]c2c1C(c1cc(F)cc(F)c1)SCC(=O)N2` (stereo not given), with 17.9%. The figure for `COc1ccc(C2CCCN2C(=O)c2cc(C(C)C)on2)cc1` (stereo not given) is -9.05%; for `COc1cccc(CN2CCCC2c2cccc(F)c2)c1OC` (stereo not given) it is -11.8%; for `COc1cc(NC(=O)N2CCCC2c2ccco2)cc(OC)c1` (stereo not given) it is -8.23%.

Turning to `Cc1[nH]c2nc(CNc3ccccc3Cl)nn2c(=O)c1C`, the cytotoxicity at 70.5 h was -10.8%. Turning to `Cc1ccc(Cl)cc1NCc1nc2[nH]c(C)c(C)c(=O)n2n1`, the cytotoxicity at 70.5 h was -0.0581%.

Regarding `Cc1ccc(Cl)cc1NC(=O)Nc1c[nH]c(=O)[nH]c1=O`, the cytotoxicity at 70.5 h was 0.569%. As to `Cc1ccc(NC(=O)Nc2c[nH]c(=O)[nH]c2=O)c(C)c1`, the cytotoxicity at 70.5 h was found to be 11.8%. Take `CCc1nnc(SCc2cc(=O)n3c4c(sc3n2)CCCC4)[nH]1`: the cytotoxicity at 70.5 h is -1.82%. Take `Nc1nnc(SCc2cc(=O)n3c4c(sc3n2)CCCC4)[nH]1`: the cytotoxicity at 70.5 h is -3.97%. For the molecule `Cc1n[nH]c(C)c1CC(=O)NCCc1ccccc1`, the cytotoxicity at 70.5 h was determined as 14.3%. The figure for `CSc1ccc(CCNC(=O)Cc2c(C)n[nH]c2C)cc1` is -7.74%. In the case of `CSc1ccc(CNC(=O)Cc2c(C)n[nH]c2C)cc1`, the cytotoxicity at 70.5 h was -6.16%. The figure for `CCc1ccc(NC(=O)c2cnc(N3CCCC3)nc2C)cc1` is -2.19%; for `Cc1nc(N2CCCC2)ncc1C(=O)Nc1ccc(Br)cc1` it is -2.71%; for `Cc1nc(-c2ccc(S(=O)(=O)N3CCC4(CC3)OCCO4)cc2)co1` it is -7.29%. Take `Cc1nc(-c2ccc(S(=O)(=O)N3CCOCC3)cc2)co1`: the cytotoxicity at 70.5 h was -6.53%. With `CCn1nc(C)c2ccn(CC(=O)NCCCOC)c(=O)c21`, the cytotoxicity at 70.5 h was -6.99%. The figure for `Cc1nn(C)c2c(=O)n(CC(=O)NCc3ccccc3Cl)ccc12` is 8.11%; for `Cc1nn(C)c2c(=O)n(CC(=O)NCC3CCCO3)ccc12` (stereo not given) it is -4.99%.

Take `COc1ccc(NC(=O)C(c2ccc(OC)cc2)N2CCOCC2)cc1` (stereo not given): the cytotoxicity at 70.5 h is 0.848%. As to `CC1=C(c2ccc(Cl)cc2)S(=O)(=O)N=C1N1CCc2ccccc21`, the cytotoxicity at 70.5 h is -2.07%. On to `CC1=C(c2ccc(C(C)C)cc2)S(=O)(=O)N=C1N1CCc2ccccc21`, for which the cytotoxicity at 70.5 h was found to be 33.6%.
